One assay concerns Th2 cytokines. Nature of the assay: ELISA of cytokine production, naive CD4+ T cells under Th2 conditions. The note with it: 30 and 80 µM, 5 days. Type of assay: cell-based, mouse. The procedure:
C57BL/6 mice were purchased from Clea (Clea Japan, Inc., Tokyo, Japan). Total CD4^+ T cells isolated from mouse spleen were prepared using a FITC anti-mouse CD4 antibody (Cat#100510, RM4–5, BioLegend) and anti-FITC-microbeads (Cat#130-097-050, Miltenyi Biotec). Naive CD4^+ T cells (CD44^low, CD62L^high) were prepared using a MojoSort Mouse CD4 T cell Isolation Kit (Cat#480033), BioLegend). Biotinylated anti-CD44 (Cat#103004, IM7) and anti-CD25 antibodies (Cat#102004, PC61) were purchased from BioLegend. […]
The CD4^+ T cells cultured for five days were stimulated using an immobilized anti-TCR-β mAb (3 µg/mL, H57–597, BioLegend) for 16 h, and the culture supernatants were recovered. The amount of cytokines in the recovered supernatants was determined with ELISA using the following antibodies and reagents: anti-IL-4 mAb (Cat#554387, BD Biosciences), biotin-anti-IL-4 mAb (Cat#554390, BD Biosciences), anti-IL-5 mAb (Cat#554393, BD Biosciences), biotin-anti-IL-5 mAb (Cat#554397, BD Biosciences), anti-IFN-γ mAb (Cat#551216, BD Biosciences), biotin-anti-IFN-γ mAb (Cat#554410, BD Biosciences), anti-IL-2 mAb (Cat#554424, BD Biosciences), biotin-anti-IL-2 mAb (Cat#554426, BD Biosciences), streptavidin horseradish peroxidase (Cat#434323, Invitrogen), and TMB peroxidase EIA substrate kit (Cat#1721066, BioRad). […]

A further assay concerns the target T1, GATA3-SOX4 interaction (Homo sapiens, UniProt P23771).
T1 construct: we synthesized the recombinant full-length GATA3 protein with an N-terminal FLAG tag using the wheat cell-free system; made in house; host or cells: wheat cell-free protein synthesis system (WEPRO1240 kit), BirA added for biotinylation
Description: Immunoprecipitation of GATA3 and SOX4. Type of assay: binding. As to conditions: 0 to 100 µM. As to the method:
Co-immunoprecipitation analysis of GATA3 and SOX4 was conducted as follows. Immunoprecipitation of FLAG-tagged GATA3 in the presence of pyrrothiogatain (0 to 100 µM) was performed by mixing recombinant FLAG-GATA3 and AGIA-SOX4 with 10 µL of anti-FLAG M2 affinity agarose gel (cat#A2220, Sigma-Aldrich) by rotation at 4 °C for 2 h. The agarose gels were washed three times, and then the immunoprecipitated protein was detected by immunoblotting using anti-FLAG M2 antibody and anti-AGIA-HRP[36].

The next assay deals with T2, GATA3 (Homo sapiens, UniProt P23771).
T2 construct: we synthesized the recombinant full-length GATA3 protein with an N-terminal FLAG tag using the wheat cell-free system; made in house; host or cells: wheat cell-free protein synthesis system (WEPRO1240 kit)
T2 sequence (P23771 whole entry, species assumed): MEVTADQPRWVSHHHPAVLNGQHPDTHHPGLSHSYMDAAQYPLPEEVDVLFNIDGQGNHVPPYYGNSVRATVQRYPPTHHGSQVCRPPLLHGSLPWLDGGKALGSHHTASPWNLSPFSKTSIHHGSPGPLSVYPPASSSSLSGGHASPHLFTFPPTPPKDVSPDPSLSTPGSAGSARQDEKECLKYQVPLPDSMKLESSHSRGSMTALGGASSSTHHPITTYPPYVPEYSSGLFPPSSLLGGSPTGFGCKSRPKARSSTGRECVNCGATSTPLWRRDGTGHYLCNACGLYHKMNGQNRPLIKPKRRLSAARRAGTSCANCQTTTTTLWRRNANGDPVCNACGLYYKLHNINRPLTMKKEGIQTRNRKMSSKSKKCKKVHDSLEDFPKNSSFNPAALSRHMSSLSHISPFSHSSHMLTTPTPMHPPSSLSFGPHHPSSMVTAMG
Nature of the assay: Electrophoretic mobility shift assay (EMSA), GATA3. In kind it is binding. As to conditions: 50 to 100 µM. As to the method: Electrophoretic mobility shift assays were performed as described previously. In brief, four GATA family proteins (GATA2 to GATA5) were incubated with a ^32P-labelled GATA-binding DNA probe for 20 min at 4 °C in the presence or absence of pyrrothiogatain (0 to 100 µM). The DNA-protein complex was separated from free oligonucleotides on 4% polyacrylamide gels, and then, the ^32P-labelled DNA probes were detected using the Typhoon FLA 7000 (GE Healthcare).

Assay [1] deals with GATA3 binding to Th2 cytokine gene locus. Nature of the assay: Chromatin immunoprecipitation with anti-GATA3 antibody in Th2 cells. In kind it is cell-based, mouse. As to conditions: naive CD4+ T cells, Th2 conditions, 80 µM, 2 days. The procedure: GATA3 has been reported to bind to Th2 cytokine gene locus, such as IL-4 VA enhancer, IL-4 intron enhancer, conserved Gata3-response element (CGRE)[26] and IL-5 promoter[27] regions in Th2 cells. We investigated whether pyrrothiogatain inhibited GATA3 binding to Th2 cytokine gene locus. Naive CD4^+ T cells were cultured under Th2 conditions in the presence or absence of 80 µM pyrrothiogatain for 2 days, and then the cells were subjected to chromatin immunoprecipitation with an anti-GATA3 antibody.
The Magna ChIP Chromatin Immunoprecipitation Kit was used for the ChIP assay according to the manufacturer’s protocol (Merck-Millipore). Anti-GATA3 antibody (Cat#AF2605, R&D systems) was used for chromatin immunoprecipitation. The specific primers for the Th2 cytokine gene locus and the Roche Universal probes were used as follows: the VA site in the IL-4 enhancer: 5′-[…]-3′ (forward), 5′-[…]-3′ (reverse), probe #4; IL-4 IE: 5′-[…]-3′ (forward), 5′-AAATCCGAAACTGA GGAGTGC-3′ (reverse), probe #75; CGRE: 5′-CTCTCCTGGTGGCGTGTT-3′ (forward), 5′-CTTTGCGCACCCTTGAAC-3′ (reverse), probe #53; and IL-5p: 5′-[…]-3′ (forward), 5′-[…]-3′ (reverse), probe #43;

Assay [2] concerns GATA3-dependent IL-5 promoter activation. Nature of the assay: IL-5 promoter luciferase reporter assay in HEK293T cells. In kind it is cell-based. As to conditions: PMA 30 ng/mL, 0 to 30 µM. As to the method:
The IL-5 promoter activity was determined as previously described[22],[23]. In brief, HEK293T cells were co-transfected with a firefly luciferase reporter (pGL3-IL-5 promoter), a renilla luciferase plasmid, and an expression vector (pcDNA3.1) using TransIT-LTI Regent (Cat#MIR2304, Mirus). Six hours after transfection, cells were treated with pyrrothiogatain (0 to 30 µM) and PMA (30 ng/mL) for 18 hours. The luciferase activity was measured using a Dual-Luciferase Reporter Assay System (cat#E1910, Promega).

T1 sequence (P23771 whole entry): as the sequence (P23771 whole entry, species assumed) above

As for `Cc1ccc(C)n1-c1ccsc1C(=O)O` [Pyrrothiogatain, 3-(2,5-dimethyl-1H-pyrrol-1-yl)thiophene-2-carboxylic acid], in the assay on Th2 cytokines, the “Production of IL-4, IL-5 and IL-13 (ELISA)” value was “Decreased”. Moreover, at GATA3-SOX4 interaction, the “GATA3-SOX4 interaction by immunoprecipitation” value is “dose-dependent decrease”. In addition, the “Intensity of the shifted bands generated by GATA3-DNA binding” value at GATA3 was “decreased”. Moreover, the “GATA3 binding to the IL-4 VA enhancer, IL-4 intron enhancer, CGRE and IL-5 promoter regions” value in assay [1] was “repressed”. For the same compound, the “GATA3-dependent transcriptional activation of the IL-5 promoter” value in assay [2] is reported as “significantly suppressed”.

These data come from article PMC6874683, “Pyrrothiogatain acts as an inhibitor of GATA family proteins and inhibits Th2 cell differentiation in vitro” (Scientific Reports, 2019).
